# pIC50: −log10 of the molar value.
# Assays:
# Format in all cases: cell-based
# EGFR L858R (Ba/F3 cells) [1] = target: T1, EGFR L858R (Ba/F3 cells) (Homo sapiens, UniProt P00533, L858R); assay: Inhibitor activity on EGFR-dependent cell growth (CellTiter-Glo, 72 h), Ba/F3 EGFR L858R; details: read-out: BaF3 L858R IC50
# T1 construct: expressed in transfected cells; host or cells: Ba/F3 (murine pro-B cells), retroviral transduction, puromycin selection, IL3-independent pool
# Procedure, shortened: (§1)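 IC50s derive from a sigmoidal dose–response fit of CellTiter-Glo signal. The signal was normalised between […]-treated cells and cell-free medium. Ba/F3 mutant-EGFR cells, seeded at 400–800/well depending on the line, had 72 h of exposure to a 10-point, 3-fold compound series.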
# [2] = target: T2, EGFR exon 19del (Ba/F3 cells) (Homo sapiens, UniProt P00533); assay: Inhibitor activity on EGFR-dependent cell growth (CellTiter-Glo, 72 h), Ba/F3 EGFR exon 19del; details: Ba/F3 EGFR exon 19del cell growth, read-out: BaF3 Del19 IC50
# T2 sequence (P00533 with tags, fused parts or gaps DEL746-750): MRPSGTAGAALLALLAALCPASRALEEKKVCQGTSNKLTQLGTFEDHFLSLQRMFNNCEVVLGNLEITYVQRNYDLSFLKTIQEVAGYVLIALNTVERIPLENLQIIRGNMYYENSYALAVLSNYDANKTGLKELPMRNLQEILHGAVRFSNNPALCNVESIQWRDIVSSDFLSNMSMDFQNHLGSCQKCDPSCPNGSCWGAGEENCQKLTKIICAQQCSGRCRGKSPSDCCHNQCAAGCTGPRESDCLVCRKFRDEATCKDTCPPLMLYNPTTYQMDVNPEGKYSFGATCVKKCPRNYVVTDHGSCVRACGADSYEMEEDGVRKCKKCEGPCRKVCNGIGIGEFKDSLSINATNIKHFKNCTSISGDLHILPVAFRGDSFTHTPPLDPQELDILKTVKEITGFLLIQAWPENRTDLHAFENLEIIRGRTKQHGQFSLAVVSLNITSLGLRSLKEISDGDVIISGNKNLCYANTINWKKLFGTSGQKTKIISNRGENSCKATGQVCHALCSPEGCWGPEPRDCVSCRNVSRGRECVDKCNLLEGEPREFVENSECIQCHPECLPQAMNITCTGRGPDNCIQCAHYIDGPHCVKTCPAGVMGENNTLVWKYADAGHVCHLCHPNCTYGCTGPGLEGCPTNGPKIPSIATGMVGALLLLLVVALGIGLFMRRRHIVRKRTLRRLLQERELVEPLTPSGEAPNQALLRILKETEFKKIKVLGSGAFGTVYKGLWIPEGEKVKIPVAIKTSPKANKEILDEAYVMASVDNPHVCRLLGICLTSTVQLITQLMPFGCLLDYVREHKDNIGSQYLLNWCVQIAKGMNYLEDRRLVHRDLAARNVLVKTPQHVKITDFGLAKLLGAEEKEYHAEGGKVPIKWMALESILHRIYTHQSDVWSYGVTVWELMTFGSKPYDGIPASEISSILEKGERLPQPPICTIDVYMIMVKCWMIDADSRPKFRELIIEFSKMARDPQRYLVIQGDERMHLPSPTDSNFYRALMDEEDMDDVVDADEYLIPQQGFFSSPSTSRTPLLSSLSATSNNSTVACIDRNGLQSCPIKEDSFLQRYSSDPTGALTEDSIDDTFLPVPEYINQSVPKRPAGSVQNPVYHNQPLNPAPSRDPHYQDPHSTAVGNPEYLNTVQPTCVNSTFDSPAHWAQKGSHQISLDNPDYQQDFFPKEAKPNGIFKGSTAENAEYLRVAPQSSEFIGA
# Procedure, shortened: as §1
# [3] = target: T3, EGFR L858R/C797S (Ba/F3 cells) (Homo sapiens, UniProt P00533, C797S/L858R); assay: Inhibitor activity on EGFR-dependent cell growth (CellTiter-Glo, 72 h), Ba/F3 EGFR L858R/C797S; details: read-out: BaF3 L858R/C797S IC50
# T3 construct: expressed in transfected cells; host or cells: Ba/F3 (murine pro-B cells), retroviral transduction, puromycin selection, IL3-independent pool
# Procedure, shortened: as §1
# EGFR L858R (Ba/F3 cells) [4] = target: T1, EGFR L858R (Ba/F3 cells); assay: Inhibitor activity on EGFR phosphorylation (pEGFR AlphaLISA, 2 h), Ba/F3 EGFR L858R
# Procedure, shortened: (§2)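 IC50 values reflect inhibition of cellular EGFR phosphorylation, measured by AlphaLISA in lysates. Engineered Ba/F3 pools expressing mutant EGFR, selected with puromycin and cultured IL3-free, or CUTO14 cells, were exposed to compound for 2 hours.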
# [5] = target: T2, EGFR exon 19del (Ba/F3 cells); assay: Inhibitor activity on EGFR phosphorylation (pEGFR AlphaLISA, 2 h), Ba/F3 EGFR exon 19del; details: read-out: Del19 IC50 (pEGFR)
# Procedure, shortened: as §2
# [6] = target: T3, EGFR L858R/C797S (Ba/F3 cells); assay: Inhibitor activity on EGFR phosphorylation (pEGFR AlphaLISA, 2 h), Ba/F3 EGFR L858R/C797S
# Procedure, shortened: as §2
# EGFR WT (Ba/F3 cells) = target: T4, EGFR WT (Ba/F3 cells) (Homo sapiens, UniProt P00533); assay: Inhibitor activity on EGFR-dependent cell growth (CellTiter-Glo, 72 h), Ba/F3 EGFR WT; details: read-out: BaF3 WT IC50
# T4 construct: expressed in transfected cells; host or cells: Ba/F3 (murine pro-B cells), retroviral transduction, puromycin selection, maintained with EGF
# Procedure, shortened: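 This growth assay used Ba/F3 cells that depend on wild-type EGFR and are kept in EGF without IL3. Compounds were made up as 10 mM DMSO stocks and diluted 3-fold over 10 points. 120 nL went onto 600 cells/well. After 72 hours, 40 μL CellTiter-Glo was added and luminescence read on EnVision after 30 min.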
# [7] = target: T5, EGFR exon 20 NPG Ins D770_N771 (Ba/F3 cells) (Homo sapiens, UniProt P00533, INS770NPG); assay: Inhibitor activity on EGFR-dependent cell growth (CellTiter-Glo, 72 h), Ba/F3 EGFR exon 20 NPG Ins; details: read-out: BaF3 NPG IC50
# T5 construct: expressed in transfected cells; host or cells: Ba/F3 (murine pro-B cells), retroviral transduction, puromycin selection, IL3-independent pool
# T5 sequence (P00533 with tags, fused parts or gaps INS770NPG): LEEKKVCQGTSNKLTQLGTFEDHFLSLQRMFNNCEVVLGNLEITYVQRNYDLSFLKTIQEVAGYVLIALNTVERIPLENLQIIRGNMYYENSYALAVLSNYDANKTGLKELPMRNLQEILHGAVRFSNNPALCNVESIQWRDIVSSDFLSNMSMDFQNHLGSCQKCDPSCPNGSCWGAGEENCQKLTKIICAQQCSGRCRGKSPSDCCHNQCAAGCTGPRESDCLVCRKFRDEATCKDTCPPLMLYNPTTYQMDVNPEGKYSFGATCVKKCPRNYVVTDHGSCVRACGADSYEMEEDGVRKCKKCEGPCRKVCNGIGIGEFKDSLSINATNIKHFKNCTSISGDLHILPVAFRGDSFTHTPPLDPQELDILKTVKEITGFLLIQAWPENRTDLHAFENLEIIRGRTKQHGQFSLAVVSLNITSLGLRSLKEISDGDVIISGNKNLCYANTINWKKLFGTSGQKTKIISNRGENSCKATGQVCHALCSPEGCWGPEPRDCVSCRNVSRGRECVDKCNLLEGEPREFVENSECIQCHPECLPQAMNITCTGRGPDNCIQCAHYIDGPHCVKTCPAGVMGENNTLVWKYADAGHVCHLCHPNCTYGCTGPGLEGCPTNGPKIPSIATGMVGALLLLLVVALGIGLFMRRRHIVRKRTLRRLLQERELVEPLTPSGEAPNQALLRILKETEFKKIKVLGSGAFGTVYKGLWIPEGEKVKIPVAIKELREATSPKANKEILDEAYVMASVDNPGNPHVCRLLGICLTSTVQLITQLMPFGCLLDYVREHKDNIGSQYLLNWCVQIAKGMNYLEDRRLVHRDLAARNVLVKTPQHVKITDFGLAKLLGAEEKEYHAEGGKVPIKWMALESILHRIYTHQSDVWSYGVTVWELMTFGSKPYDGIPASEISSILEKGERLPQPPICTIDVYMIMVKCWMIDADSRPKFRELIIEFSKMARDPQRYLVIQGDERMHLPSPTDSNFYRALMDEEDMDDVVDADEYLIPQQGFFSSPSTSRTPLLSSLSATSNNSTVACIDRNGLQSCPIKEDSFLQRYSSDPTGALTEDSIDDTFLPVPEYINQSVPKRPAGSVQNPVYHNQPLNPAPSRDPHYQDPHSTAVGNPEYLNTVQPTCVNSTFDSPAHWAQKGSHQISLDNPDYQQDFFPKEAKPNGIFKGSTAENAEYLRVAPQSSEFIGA
# Procedure, shortened: as §1
# EGFR (CUTO14 cells) = EGFR (CUTO14 cells) (Homo sapiens, UniProt P00533); assay: Inhibitor activity on EGFR phosphorylation (pEGFR AlphaLISA, 2 h), CUTO14 cells
# From the text: (§3) Example B. Inhibitor Activity on EGFR phosphorylation (pEGFR)
# (§4) EGFR mutant Ba/F3 cells were generated by transduction with retrovirus containing vectors expressing EGFR L858R, EGFR exon 19del, EGFR L858R/C797S, EGFR exon 20 NPG Ins D770_N771, EGFR exon 20 ASV Ins V769_D770, or EGFR exon 20 SVD Ins D770_N771 genes along with a puromycin selection marker. Transduced cells are selected with puromycin for 7 days and are then be transferred into culture media without Interleukin 3 (IL3). Surviving cells are confirmed to express EGFR by Western blot and maintained as a pool. CUTO14 cells were obtained from Dr. Robert C. Doebele at the University of Colorado. The IC50 date are included in Table 6 and Table 7.
# (§5) 1.1 Cells are harvested from flask into cell culture medium and the cell number counted.
# (§6) 1.2 Cells are diluted with culture medium to the desired density and 40 μL of cell suspension is added into each well of 384-well cell culture plate and the seeding density is 50K cells/well (Ba/F3) or 12.5K cells/well (CUTO14).
# (§7) 2 Compound Preparation and Treatment
# (§8) 2.1 Test compounds are dissolved to 10 mM in a DMSO stock solution. 45 μL of stock solution is transferred to a 384 polypropylene plate (pp-plate). Perform 3-fold, 10-point dilution via transferring 15 μL compound into 30 μL DMSO using a TECAN (EVO200) liquid handler.
# (§9) 2.2 Spin plates at room temperature at 1,000 RPM for 1 minute.
# (§10) 2.3 Transfer 5 nL of diluted compound from compound source plate into the cell plate.
# (§11) 2.4 After compound treatment for 2 hours, perform pEGFR detection by AlphaLISA for compound treatment plates as described in “Detection” section.
# (§12) 3 Detection by pEGFR AlphaLISA (Perkin-Elmer)
# (§13) 3.1 Plates are removed from incubators and equilibrated at room temperature for 10 minutes, and media was removed
# (§14) 3.2 10 μL of lysis buffer is added and plates shaken at 600 rpm for 1 hr.
# (§15) 3.3 Prepare acceptor mix just before use and dispense 5 μL of acceptor mix to all the wells. Shake 350 rpm for Ihr in the dark
# (§16) 3.4 Prepare donor mix under low light conditions prior to use. Dispense 5 μL of donor mix to all the wells. Mix well on the shaker, seal and wrap in aluminum foil and incubate 1.5 hrs at room temperature in the dark
# (§17) 3.5 Transfer 18.5 μL mixture to OptiPlate 384, and read using an Envision. The IC50 date were included in Table 6 and Table 7.
# [8] = target: T6, EGFR exon 20 ASV Ins V769_D770 (Ba/F3 cells) (Homo sapiens, UniProt P00533, INS769ASV); assay: Inhibitor activity on EGFR-dependent cell growth (CellTiter-Glo, 72 h), Ba/F3 EGFR exon 20 ASV Ins; details: read-out: BaF3 ASV IC50
# T6 construct: expressed in transfected cells; host or cells: Ba/F3 (murine pro-B cells), retroviral transduction, puromycin selection, IL3-independent pool
# Procedure, shortened: as §1
# [9] = target: T7, EGFR exon 20 SVD Ins D770_N771 (Ba/F3 cells) (Homo sapiens, UniProt P00533, INS770SVD); assay: Inhibitor activity on EGFR-dependent cell growth (CellTiter-Glo, 72 h), Ba/F3 EGFR exon 20 SVD Ins; details: read-out: BaF3 SVD IC50
# T7 construct: expressed in transfected cells; host or cells: Ba/F3 (murine pro-B cells), retroviral transduction, puromycin selection, IL3-independent pool
# T7 sequence (P00533 with tags, fused parts or gaps INS770SVD): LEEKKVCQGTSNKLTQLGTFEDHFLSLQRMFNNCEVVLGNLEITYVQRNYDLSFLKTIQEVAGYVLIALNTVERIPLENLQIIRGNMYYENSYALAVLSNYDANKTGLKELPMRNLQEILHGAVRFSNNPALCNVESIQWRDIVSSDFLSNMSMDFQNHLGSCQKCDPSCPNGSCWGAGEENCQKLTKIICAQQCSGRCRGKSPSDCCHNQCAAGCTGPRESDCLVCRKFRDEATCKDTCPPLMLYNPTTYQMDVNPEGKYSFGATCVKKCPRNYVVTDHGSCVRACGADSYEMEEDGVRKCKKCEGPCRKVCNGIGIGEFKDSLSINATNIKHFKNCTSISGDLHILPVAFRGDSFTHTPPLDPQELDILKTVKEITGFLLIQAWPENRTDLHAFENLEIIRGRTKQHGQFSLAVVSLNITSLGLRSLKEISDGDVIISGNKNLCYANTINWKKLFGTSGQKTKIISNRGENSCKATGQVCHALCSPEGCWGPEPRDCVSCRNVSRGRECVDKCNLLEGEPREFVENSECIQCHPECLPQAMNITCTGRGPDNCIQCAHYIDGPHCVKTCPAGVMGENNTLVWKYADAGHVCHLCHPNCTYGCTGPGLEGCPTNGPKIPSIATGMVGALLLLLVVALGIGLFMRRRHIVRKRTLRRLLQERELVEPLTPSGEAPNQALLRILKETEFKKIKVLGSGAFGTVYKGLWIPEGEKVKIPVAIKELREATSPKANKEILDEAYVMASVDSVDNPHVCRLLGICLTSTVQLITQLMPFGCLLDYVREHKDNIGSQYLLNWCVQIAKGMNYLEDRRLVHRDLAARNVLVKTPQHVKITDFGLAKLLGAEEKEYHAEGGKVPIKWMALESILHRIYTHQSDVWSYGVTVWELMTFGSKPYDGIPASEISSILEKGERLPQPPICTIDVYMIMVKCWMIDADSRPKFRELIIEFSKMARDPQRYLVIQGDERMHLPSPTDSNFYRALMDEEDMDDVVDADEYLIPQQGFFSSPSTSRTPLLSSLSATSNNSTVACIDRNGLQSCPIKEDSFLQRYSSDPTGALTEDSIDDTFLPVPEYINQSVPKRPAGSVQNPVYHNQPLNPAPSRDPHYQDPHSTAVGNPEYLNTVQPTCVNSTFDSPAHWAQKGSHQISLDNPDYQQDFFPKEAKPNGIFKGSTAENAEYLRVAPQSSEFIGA
# Procedure, shortened: as §1
# [10] = target: T8, EGFR exon 20 FQEA Ins A763_V764 (Ba/F3 cells) (Homo sapiens, UniProt P00533, INS763FQEA); assay: Inhibitor activity on EGFR-dependent cell growth (CellTiter-Glo, 72 h), Ba/F3 EGFR exon 20 FQEA Ins; details: read-out: BaF3 FQEA IC50
# T8 construct: expressed in transfected cells; host or cells: Ba/F3 (murine pro-B cells), retroviral transduction, puromycin selection, IL3-independent pool
# T8 sequence (P00533 with tags, fused parts or gaps INS763FQEA): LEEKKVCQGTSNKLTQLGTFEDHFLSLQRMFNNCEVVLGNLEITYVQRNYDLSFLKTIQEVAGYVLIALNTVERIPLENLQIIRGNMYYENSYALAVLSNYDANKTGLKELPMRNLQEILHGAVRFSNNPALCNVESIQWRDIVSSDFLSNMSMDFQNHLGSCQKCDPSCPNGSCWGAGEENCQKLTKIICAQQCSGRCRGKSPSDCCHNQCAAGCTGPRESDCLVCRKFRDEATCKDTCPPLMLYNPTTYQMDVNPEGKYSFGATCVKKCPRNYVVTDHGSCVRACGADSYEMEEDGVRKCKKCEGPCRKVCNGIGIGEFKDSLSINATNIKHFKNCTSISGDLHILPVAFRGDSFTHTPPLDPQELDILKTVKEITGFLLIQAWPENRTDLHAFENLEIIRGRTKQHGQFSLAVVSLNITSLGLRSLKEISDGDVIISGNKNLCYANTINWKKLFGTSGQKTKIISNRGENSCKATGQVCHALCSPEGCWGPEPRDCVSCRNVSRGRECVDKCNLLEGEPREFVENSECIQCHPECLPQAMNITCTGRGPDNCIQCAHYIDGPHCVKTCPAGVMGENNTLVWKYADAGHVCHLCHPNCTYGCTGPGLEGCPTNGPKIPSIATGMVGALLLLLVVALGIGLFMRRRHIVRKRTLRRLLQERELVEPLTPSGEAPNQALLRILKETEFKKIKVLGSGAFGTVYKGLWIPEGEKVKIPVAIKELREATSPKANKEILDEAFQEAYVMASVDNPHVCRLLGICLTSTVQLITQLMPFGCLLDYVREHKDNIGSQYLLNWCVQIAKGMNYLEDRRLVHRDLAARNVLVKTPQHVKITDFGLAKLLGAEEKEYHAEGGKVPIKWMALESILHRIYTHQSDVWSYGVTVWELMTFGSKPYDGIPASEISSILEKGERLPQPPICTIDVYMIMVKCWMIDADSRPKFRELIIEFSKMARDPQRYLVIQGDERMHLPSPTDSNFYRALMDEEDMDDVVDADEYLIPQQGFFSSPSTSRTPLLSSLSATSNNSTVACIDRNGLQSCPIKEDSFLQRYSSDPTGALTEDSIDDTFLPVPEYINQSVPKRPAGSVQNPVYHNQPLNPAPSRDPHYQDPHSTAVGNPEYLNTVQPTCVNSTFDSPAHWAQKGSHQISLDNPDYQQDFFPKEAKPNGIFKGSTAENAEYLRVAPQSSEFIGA
# Procedure, shortened: as §1
# [11] = target: T5, EGFR exon 20 NPG Ins D770_N771 (Ba/F3 cells); assay: Inhibitor activity on EGFR phosphorylation (pEGFR AlphaLISA, 2 h), Ba/F3 EGFR exon 20 NPG Ins
# Procedure, shortened: as §2
# [12] = target: T6, EGFR exon 20 ASV Ins V769_D770 (Ba/F3 cells); assay: Inhibitor activity on EGFR phosphorylation (pEGFR AlphaLISA, 2 h), Ba/F3 EGFR exon 20 ASV Ins; details: EGFR phosphorylation, AlphaLISA, 2 hours; read-out: ASV IC50 (pEGFR)
# Procedure, shortened: as §2
# [13] = target: T7, EGFR exon 20 SVD Ins D770_N771 (Ba/F3 cells); assay: Inhibitor activity on EGFR phosphorylation (pEGFR AlphaLISA, 2 h), Ba/F3 EGFR exon 20 SVD Ins
# From the text: as §3, §4, §5, §6, §7, §8, §9, §10, §11, §12, §13, §14, §15, §16, §17
Compound,pIC50 (EGFR L858R (Ba/F3 cells) [1]),pIC50 [2],pIC50 [3],pIC50 (EGFR L858R (Ba/F3 cells) [4]),pIC50 [5],pIC50 [6],pIC50 (EGFR WT (Ba/F3 cells)),pIC50 [7],pIC50 (EGFR (CUTO14 cells)),pIC50 [8],pIC50 [9],pIC50 [10],pIC50 [11],pIC50 [12],pIC50 [13]
"COc1c(Cl)cccc1Nc1c(-c2ccncn2)[nH]c2c1C(=O)NCC2C[C@H]1COCCO1 (single isomer, unassigned) [Compound 527, (7R*)-3-[(3-chloro-2-methoxyphenyl)amino]-7-[(2S)-1,4-dioxan-2-ylmethyl]-2-(pyrimidin-4-yl)-1H,5H,6H,7H-pyrrolo[3,2-c]pyridin-4-one]",> 7.00,> 7.00,> 7.00,> 7.00,> 7.00,> 7.00,6.00 to 7.00,> 7.00,> 7.00,,,,,,
"COc1c(F)cccc1Nc1c(-c2ccnc(C)n2)[nH]c2c1C(=O)NCC2C[C@@H]1COCCO1 (single isomer, unassigned) [Compound 604]",> 7.00,> 7.00,> 7.00,> 7.00,> 7.00,> 7.00,6.00 to 7.00,> 7.00,> 7.00,> 7.00,> 7.00,> 7.00,,,
"COc1c(F)cccc1Nc1c(-c2ccnc(C)n2)[nH]c2c1C(=O)NCC2C[C@H]1COCCO1 (single isomer, unassigned) [Compound 606]",> 7.00,> 7.00,> 7.00,> 7.00,> 7.00,> 7.00,6.00 to 7.00,> 7.00,> 7.00,> 7.00,> 7.00,> 7.00,,,
"COc1c(Cl)cccc1Nc1c(-c2ccnc(N)n2)[nH]c2c1C(=O)NCC2 [Compound 148, 2-(2-aminopyrimidin-4-yl)-3-((3-chloro-2-methoxyphenyl)amino)-1,5,6,7-tetrahydro-4H-pyrrolo[3,2-c]pyridin-4-one]",,,,,,,6.00 to 7.00,> 7.00,> 7.00,,,6.00 to 7.00,> 7.00,> 7.00,> 7.00
"C=CC(=O)N1CCC2(CC1)CNC(=O)c1c2[nH]c(-c2ccnc3ccc(OC)nc23)c1Nc1cccc(F)c1OC [Compound 160, 1-acryloyl-3′-((3-fluoro-2-methoxyphenyl)amino)-2′-(6-methoxy-1,5-naphthyridin-4-yl)-5′,6′-dihydrospiro[piperidine-4,7′-pyrrolo[3,2-c]pyridin]-4′(1′H)-one]",,,,,,,,> 7.00,> 7.00,> 7.00,> 7.00,> 7.00,> 7.00,> 7.00,> 7.00
"COc1c(Cl)cccc1Nc1c(-c2ccncn2)[nH]c2c1C(=O)NC[C@H]2C[C@@H]1COCCO1 [Compound 568, (7R)-3-[(3-chloro-2-methoxyphenyl)amino]-7-[(2R)-1,4-dioxan-2-ylmethyl]-2-(pyrimidin-4-yl)-1H,5H,6H,7H-pyrrolo[3,2-c]pyridin-4-one]",> 7.00,> 7.00,> 7.00,> 7.00,> 7.00,> 7.00,6.00 to 7.00,> 7.00,> 7.00,,,> 7.00,,,
"COc1c(F)cccc1Nc1c(-c2ccncn2)[nH]c2c1C(=O)NC[C@H]2C[C@@H]1COCCO1 [Compound 569, (7R)-7-[(2R)-1,4-dioxan-2-ylmethyl]-3-[(3-fluoro-2-methoxyphenyl)amino]-2-(pyrimidin-4-yl)-1H,5H,6H,7H-pyrrolo[3,2-c]pyridin-4-one]",> 7.00,> 7.00,> 7.00,> 7.00,> 7.00,> 7.00,6.00 to 7.00,> 7.00,> 7.00,> 7.00,> 7.00,> 7.00,,,
"COc1c(Cl)cccc1Nc1c(-c2ccnc3c(N)noc23)[nH]c2c1C(=O)NCC2 [compound 524, 2-{3-amino-[1,2]oxazolo[4,5-b]pyridin-7-yl}-3-[(3-chloro-2-methoxyphenyl)amino]-1H,5H,6H,7H-pyrrolo[3,2-c]pyridin-4-one]",,,,,,,6.00 to 7.00,> 7.00,> 7.00,> 7.00,> 7.00,,> 7.00,> 7.00,> 7.00
COc1c(Cl)cccc1Nc1c(-c2ccncc2F)[nH]c2c1C(=O)NC[C@]21CCN(CC(F)F)C1 [compound 821],> 7.00,> 7.00,> 7.00,> 7.00,> 7.00,> 7.00,6.00 to 7.00,> 7.00,,> 7.00,> 7.00,> 7.00,,,
"CCOc1ncc2nccc(-c3[nH]c4c(c3Nc3cccc(Cl)c3OC)C(=O)NCC4)c2n1 [compound 827, 3-[(3-chloro-2-methoxyphenyl)amino]-2-{2-ethoxypyrido[3,2-d]pyrimidin-8-yl}-1H,5H,6H,7H-pyrrolo[3,2-c]pyridin-4-one]",> 7.00,> 7.00,> 7.00,> 7.00,> 7.00,> 7.00,> 7.00,> 7.00,,> 7.00,> 7.00,> 7.00,,,
